Assay results taken from ChEMBL document CHEMBL1131787, “Effects of ortho-substituent groups of sulochrin on inhibitory activity to eosinophil degranulation” (Bioorg Med Chem Lett, 1999).

Assay: Inhibitory activity against eosinophil degranulation
Format: functional

IC50 [nM] | Compound
300 | COC(=O)c1cc(O)cc(OC)c1C(=O)c1c(O)cc(C)cc1OC
400 | COC(=O)c1cc(O)cc(O)c1C(=O)c1c(O)cc(C)cc1OC
> 10000 | COC(=O)c1cc(O)cc(O)c1C(=O)c1c(OC)cc(C)cc1OC
100 | CCOC(=O)c1cc(O)cc(OC)c1C(=O)c1c(O)cc(C)cc1O
100 | CCCOC(=O)c1cc(O)cc(OC)c1C(=O)c1c(O)cc(C)cc1O
30 | CCC(C)OC(=O)c1cc(O)cc(OC)c1C(=O)c1c(O)cc(C)cc1O (stereo not drawn)
> 10000 | COc1cc(O)ccc1C(=O)c1c(O)cc(C)cc1O
100 | COC(=O)c1cc(O)cc(OC)c1C(=O)c1c(O)cc(C)cc1O [SULOCHRIN]
40 | CCCCOC(=O)c1cc(O)cc(OC)c1C(=O)c1c(O)cc(C)cc1O
> 10000 | COC(=O)c1cc(O)cc(OC)c1C(=O)c1c(OCCO)cc(C)cc1OCCO
300 | CCCCCCOC(=O)c1cc(O)cc(OC)c1C(=O)c1c(O)cc(C)cc1O
> 10000 | COC(=O)c1cc(O)cc(O)c1C(=O)c1c(O)cc(C)cc1O
> 10000 | COc1cc(O)cc(C(=O)O)c1C(=O)c1c(O)cc(C)cc1O
